How the values were obtained:
4T1-Luc2 cells = test: 4T1-Luc2 mammary carcinoma tumor resection model: metastasis and survival; assay type: in vivo, BALB/c mice
Procedure: BALB/c mice were subcutaneously injected with 4T1-Luc2 cells (5×10^5/100 μl PBS/mouse) into the fourth mammary fat pad under isoflurane anesthesia. Tumor growth was monitored by measuring the tumor volume according to the formula: volume=length×(width)^2/2. After tumors were established (180-200 mm^3) on day 14, test mice were divided into different groups (8 mice/group) and subjected to different treatments. At 15 days post tumor cell implantation, primary 4T1 tumors in situ were surgically removed by a tumor resection process. For drug treatment, mice were administered with different agents, including vehicle-control (PBS), mouse IL-25 protein (10 μg/kg, ProSpec, Vineland, N.J.), Q2-3 (2, […]; […]), by intravenous injection for 3 weeks (3 injections/week) post tumor resection. For in vivo neutralization of mouse IL-25 activity, mice were treated intraperitoneally with either 100 μg anti-mouse IL-25 (IL-17E) antibody (clone 35B; Biolegend) or isotype control rat IgG (100 μg; rat, IgG1κ; Biolegend) at days 0, 3, 6, 9, 12, 15, 18 post tumor resection. To detect metastasis of human MDA-MD-231-Luc2 tumor cells, nude mice were injected subcutaneously with 5×10^5 MDA-MD-231-Luc2 cells into the mammary fat pad under isoflurane anesthesia. After tumors were established (250-350 mm^3) on day 24, test mice were divided into different groups (8 mice/group) and subjected to different treatments. At 25 days post tumor cell implantation, primary MDA-MD-231-Luc2 tumors in situ were surgically removed by a tumor resection process. […] Bioluminescence signals from the 4T1-luc2 tumor cells in test mice were analyzed using a non-invasive IVIS imaging system (Calipers, Hopkinton, Mass.) after intraperitoneal injection of 150 mg/kg D-luciferin (NanoLight technology, Pinetop, Ariz.).
Statistical analysis was performed using an unpaired, two-tailed Student's t-test. […] Differences in tumor metastasis or mouse survival rate were determined by a log-rank (Mantel-Cox) test of the Kaplan-Meier curves. […]

[1] = test system: myeloid derived suppressor cells (MDSCs); test: Flow cytometry of MDSCs in lung tissue, 4T1 tumor resection model; assay type: in vivo, mice; conditions: 10 μg/kg, 3 weeks post tumor resection
Procedure: BALB/c mice were subcutaneously injected with 4T1-Luc2 cells (5×10^5/100 μl PBS/mouse) into the fourth mammary fat pad under isoflurane anesthesia. Tumor growth was monitored by measuring the tumor volume according to the formula: volume=length×(width)^2/2. After tumors were established (180-200 mm^3) on day 14, test mice were divided into different groups (8 mice/group) and subjected to different treatments. At 15 days post tumor cell implantation, primary 4T1 tumors in situ were surgically removed by a tumor resection process. For drug treatment, mice were administered with different agents, including vehicle-control (PBS), mouse IL-25 protein (10 μg/kg, ProSpec, Vineland, N.J.), Q2-3 (2, 20 or 100 μg/kg) or docetaxel (2 mg/kg; Sigma-Aldrich), by intravenous injection for 3 weeks (3 injections/week) post tumor resection. […] Bioluminescence signals from the 4T1-luc2 tumor cells in test mice were analyzed using a non-invasive IVIS imaging system (Calipers, Hopkinton, Mass.) after intraperitoneal injection of 150 mg/kg D-luciferin (NanoLight technology, Pinetop, Ariz.). […]
Suppressive effects of Q2-3 on in vivo expansion of MDSC populations were also evaluated for both the monocytic (CD11b^+Ly6C^+) and granulocytic (CD11b^+Ly6G^+) subsets of MDSCs. The populations of these two MDSC cell types in lung tissues of test mice were analyzed and compared at 3 weeks post tumor resection.

MCF-7 cells = conditions: cited from earlier work

COC(=O)/C=C/c1cc(O)c2c(c1)C(C(=O)OC)C(c1ccc(O)c(O)c1)O2 (stereo not drawn) [Q2-3, methyl(E)-3-[2-(3,4-dihydroxyphenyl)-7-hydroxy-3-methoxycarbonyl-2,3-dihydro-1-benzofuran-5yl]-prop-2-enoate]
survival rate of tumor-resected mice (4T1-Luc2 cells; 4T1 tumor resection model): significantly increased
metastasis of 4T1 cells to the lung (luminescent activity) (4T1-Luc2 cells; ≥20 μg/kg i.v., 3 injections/week for 3 weeks post tumor resection): significantly suppress
anti-metastatic activity compared with doxorubicin (2 mg/kg) (4T1-Luc2 cells; ≥20 μg/kg, luciferase activity): much higher anti-metastatic activity than treatment with doxorubicin
monocytic CD11b+Ly6C+ MDSC population in lung tissue ([1]; PBS control 0.9%): 0.4%
granulocytic CD11b+Ly6G+ MDSC population in lung tissue ([1]; PBS control 42.9%): 12.5%
anti-proliferation effect (MCF-7 cells): significant anti-proliferation effect

Source: US11207289B2, “Use of benzofuran lignans to induce IL-25 expression and suppress mammary tumor metastasis” (ACADEMIA SINICA, priority 2016, dated 2021)
